Test system: bovine cardiac myofibrils
Assay: Myofibril assay: PK/LDH-coupled steady-state ATPase activity of skinned bovine cardiac myofibrils
Format: biochemical
Settings: Ca2+ activating to 75% of maximal rate
Method in brief: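 Steady-state ATPase of detergent-skinned bovine left-ventricular myofibrils (1 mg/mL), PK/LDH-coupled NADH read at 340 nm, in PIPES/MgCl2 buffer pH 6.8 with 50 μM ATP, 0.6 mM EGTA and CaCl2 set for 50% or 75% activation. Inhibition of activity measured.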

| SMILES | CDMF75 IC15 |
| --- | --- |
| NC(=O)C12CC(C3C(=O)N(c4ncc(Cl)cc4F)CC(=O)N3Cc3ccc(Cl)cc3)(C1)C2 (stereo not shown) [Compound 835, 3-(4-(5-chloro-3-fluoropyridin-2-yl)-1-(4-chlorobenzyl)-3,6-dioxopiperazin-2-yl)bicyclo[1.1.1]pentane-1-carboxamide] | 1640 nM |
| NC(=O)C12CC([C@H]3C(=O)N(c4ncc(Cl)cc4F)CC(=O)N3Cc3ccc(Cl)cc3)(C1)C2 [Compound 836, (S)-3-(4-(5-chloro-3-fluoro-pyridin-2-yl)-1-(4-chloro-benzyl)-3,6-dioxo-piperazin-2-yl)bicyclo-[1.1.1]pentane-1-carboxamide] | 1420 nM |
| NC(=O)C12CC([C@@H]3C(=O)N(c4ncc(Cl)cc4F)CC(=O)N3Cc3ccc(Cl)cc3)(C1)C2 [Compound 837, (R)-3-(4-(5-chloro-3-fluoro-pyridin-2-yl)-1-(4-chloro-benzyl)-3,6-dioxo-piperazin-2-yl)bicyclo-[1.1.1]pentane-1-carboxamide] | >39000 nM |
| O=C1C(C23CC(O)(C2)C3)N(Cc2ccc(C(F)(F)F)cc2)C(=O)CN1c1ncc(Cl)cc1F (stereo not shown) [Compound 838, 1-(5-chloro-3-fluoropyridin-2-yl)-3-(3-hydroxybicyclo[1.1.1]pentan-1-yl)-4-(4-(trifluoromethyl)benzyl)piperazine-2,5-dione] | 3800 nM |
| O=C1C(C23CC(O)(C2)C3)N(Cc2ccc(Cl)cc2)C(=O)CN1c1ncc(Cl)cc1F (stereo not shown) [Compound 841, 1-(5-chloro-3-fluoropyridin-2-yl)-4-(4-chlorobenzyl)-3-(3-hydroxybicyclo[1.1.1]-pentan-1-yl)piperazine-2,5-dione] | 2700 nM |
| O=C1C(C23CC(O)(C2)C3)N(Cc2ccc(F)cc2)C(=O)CN1c1ncc(Cl)cc1F (stereo not shown) [Compound 844, 1-(5-chloro-3-fluoropyridin-2-yl)-4-(4-fluorobenzyl)-3-(3-hydroxybicyclo[1.1.1]-pentan-1-yl)piperazine-2,5-dione] | 8600 nM |
| Cc1cc(Cl)cnc1N1CC(=O)N(Cc2ccc(Cl)cc2)C2(CN(c3ccccn3)C2)C1=O [Compound 882, 8-(5-chloro-3-methyl-pyridin-2-yl)-5-(4-chloro-benzyl)-2-(pyridin-2-yl)-2,5,8-triazaspiro[3.5]-nonane-6,9-dione] | 300 nM |
| Cc1cc(Cl)cnc1N1CC(=O)N(Cc2ccc(F)cc2)C2(CN(c3ccccn3)C2)C1=O [Compound 883, 8-(5-chloro-3-methyl-pyridin-2-yl)-5-(4-fluoro-benzyl)-2-(pyridin-2-yl)-2,5,8-triazaspiro[3.5]-nonane-6,9-dione] | 400 nM |
| Cc1cc(Cl)cnc1N1CC(=O)N(Cc2ccc(Cl)cc2)C2(CN(c3ccc(F)cn3)C2)C1=O [Compound 884, 8-(5-chloro-3-methyl-pyridin-2-yl)-5-(4-chloro-benzyl)-2-(5-fluoropyridin-2-yl)-2,5,8-triazaspiro[3.5]-nonane-6,9-dione] | 500 nM |
| Cc1cc(Cl)cnc1N1CC(=O)N(Cc2ccc(F)cc2)C2(CN(c3ccc(F)cn3)C2)C1=O [Compound 885, 8-(5-chloro-3-methyl-pyridin-2-yl)-5-(4-fluoro-benzyl)-2-(5-fluoropyridin-2-yl)-2,5,8-triazaspiro-[3.5]nonane-6,9-dione] | 500 nM |
| Cc1cc(Cl)cnc1N1CC(=O)N(Cc2ccc(Cl)cc2)C2(CN(c3ccc(C#N)cn3)C2)C1=O [Compound 886, 6-(8-(5-chloro-3-methyl-pyridin-2-yl)-5-(4-chloro-benzyl)-6,9-dioxo-2,5,8-triazaspiro[3.5]nonan-2-yl)nicotinonitrile] | 700 nM |
| Cc1cc(Cl)cnc1N1CC(=O)N(Cc2ccc(F)cc2)C2(CN(c3ccc(C#N)cn3)C2)C1=O [Compound 887, 6-(8-(5-chloro-3-methyl-pyridin-2-yl)-5-(4-fluoro-benzyl)-6,9-dioxo-2,5,8-triazaspiro[3.5]nonan-2-yl)nicotinonitrile] | 900 nM |

Second part, the compound after the results:

| CDMF75 IC15 | SMILES |
| --- | --- |
| 900 nM | Cc1ccc(CN2C(=O)CN(c3ncc(Cl)cc3F)C(=O)C23CC2(COC2)C3)cc1 [Compound 816, 10-(5-chloro-3-fluoro-pyridin-2-yl)-7-(4-methyl-benzyl)-2-oxa-7,10-diazadispiro[3.1.56.14]-dodecane-8,11-dione] |
| 2100 nM | NC(=O)C12CC([C@H]3C(=O)N(c4ncc(Cl)cc4F)CC(=O)N3Cc3ccc(C(F)F)cc3)(C1)C2 [Compound 821, (S)-3-(4-(5-chloro-3-fluoropyridin-2-yl)-3,6-dioxo-1-(4-(difluoro-methyl)benzyl)piperazin-2-yl)bicyclo[1.1.1]pentane-1-carboxamide] |
| >39000 nM | NC(=O)C12CC([C@@H]3C(=O)N(c4ncc(Cl)cc4F)CC(=O)N3Cc3ccc(C(F)F)cc3)(C1)C2 [Compound 822, (R)-3-(4-(5-chioro-3-fluoropyridin-2-yl)-3,6-dioxo-1-(4-(difluoro-methyl)benzyl)piperazin-2-yl)bicyclo[1.1.1]pentane-1-carboxamide] |
| 2300 nM | Cc1ccc(CN2C(=O)CN(c3ncc(Cl)cc3F)C(=O)[C@@H]2C23CC(C(N)=O)(C2)C3)cc1 [Compound 823, (S)-3-(4-(5-chloro-3-fluoropyridin-2-yl)-1-(4-methylbenzyl)-3,6-dioxopiperazin-2-yl)bicyclo[1.1.1]pentane-1-carboxamide] |
| >39000 nM | Cc1ccc(CN2C(=O)CN(c3ncc(Cl)cc3F)C(=O)[C@H]2C23CC(C(N)=O)(C2)C3)cc1 [Compound 824, (R)-3-(4-(5-chloro-3-fluoropyridin-2-yl)-1-(4-methylbenzyl)-3,6-dioxopiperazin-2-yl)-bicyclo[1.1.1]pentane-1-carboxamide] |
| 700 nM | CC(=O)N1CC2(C1)CC1(C2)C(=O)N(c2ncc(Cl)cc2F)CC(=O)N1Cc1ccc(C(F)(F)F)cc1 [Compound 825, 2-acetyl-10-(5-chloro-3-fluoropyridin-2-yl)-7-(4-(trifluoromethyl)benzyl)-2,7,10-triazadispiro-[3.1.56.14]dodecane-8,11-dione] |
| 1260 nM | CC(=O)N1CC2(C1)CC1(C2)C(=O)N(c2ncc(Cl)cc2F)CC(=O)N1Cc1ccc(C(F)F)cc1 [Compound 826, 2-acetyl-10-(5-chloro-3-fluoropyridin-2-yl)-7-(4-(difluoromethyl)benzyl)-2,7,10-triazadispiro-[3.1.56.14]dodecane-8,11-dione] |
| 2680 nM | CC(=O)N1CC2(C1)CC1(C2)C(=O)N(c2ncc(Cl)cc2F)CC(=O)N1Cc1ccc(F)cc1 [Compound 827, 2-acetyl-10-(5-chloro-3-fluoropyridin-2-yl)-7-(4-fluorobenzyl)-2,7,10-triazadispiro[3.1.56.14]-dodecane-8,11-dione] |
| 1370 nM | O=CN1CC2(C1)CC1(C2)C(=O)N(c2ncc(Cl)cc2F)CC(=O)N1Cc1ccc(F)cc1 [Compound 828, 10-(5-chloro-3-fluoro-pyridin-2-yl)-7-(4-fluoro-benzyl)-8,11-dioxo-2,7,10-triazadispiro[3.1.56.14]-dodecane-2-carbaldehyde] |
| 1750 nM | Cc1ccc(CN2C(=O)CN(c3ncc(Cl)cc3F)C(=O)C23CC2(CN(C=O)C2)C3)cc1 [Compound 830, 10-(5-chloro-3-fluoro-pyridin-2-yl)-7-(4-methyl-benzyl)-8,11-dioxo-2,7,10-triazadispiro[3.1.56.14]-dodecane-2-carbaldehyde] |
| 530 nM | CC(=O)N1CC2(C1)CC1(C2)C(=O)N(c2ncc(Cl)cc2F)CC(=O)N1Cc1ccc(Cl)cc1 [Compound 831, 2-acetyl-10-(5-chloro-3-fluoropyridin-2-yl)-7-(4-chlorobenzyl)-2,7,10-triazadispiro[3.1.56.14]-dodecane-8,11-dione] |
| 5700 nM | O=C1C(C23CC(O)(C2)C3)N(Cc2ccc(C(F)F)cc2)C(=O)CN1c1ncc(Cl)cc1F (stereo not shown) [Compound 849, 1-(5-chloro-3-fluoropyridin-2-yl)-4-(4-(difluoromethyl)-benzyl)-3-(3-hydroxy-bicyclo[1.1.1]pentan-1-yl)piperazine-2,5-dione] |
| 6500 nM | Cc1ccc(CN2C(=O)CN(c3ncc(Cl)cc3F)C(=O)C2C23CC(O)(C2)C3)cc1 (stereo not shown) [Compound 852, 1-(5-chloro-3-fluoropyridin-2-yl)-3-(3-hydroxybicyclo-[1.1.1]pentan-1-yl)-4-(4-methylbenzyl)piperazine-2,5-dione] |

— patent US11414424B2, “Cardiac sarcomere inhibitors” (Cytokinetics, Inc., priority 2018, dated 2022)
